Laboratory results published in PMC7576608, “Mechanisms of telomerase inhibition by oxidized and therapeutic dNTPs” (Nature Communications, 2020).
Several values for one entry are separate records, joined by “and”; a condition that tells them apart may be missing. Equal entries are not always repeated.

Target: telomerase (Homo sapiens, UniProt O14746)
Assay: Direct telomerase repeat addition assay with radiolabeled dNTPs: dNTP titration, repeat processivity R1/2
Type: biochemical
Design: made in house; anti-FLAG immunopurification, eluted with 3xFLAG peptide
Conditions: for Processivity R 1/2: (TTAGGG)3 primer, remaining three natural dNTPs at cellular concentration
Description: This preparation, termed super telomerase, has kinetic properties similar to endogenous telomerase (Supplementary Fig. 1)[29]–[31]. […] Repeat processivity was measured using the convention of calculating the number of repeats synthesized before half of the DNA substrates dissociate from telomerase[33] (Supplementary Fig. 2). 8-oxo-dGTP served as a control since it is an established telomerase chain terminator[12].
Fig. 2 Oxidized and therapeutic dNTPs inhibit telomerase processivity. […] The loading control (*) was a ^32P-end labeled 18-mer oligonucleotide. Numbers on the left indicate the number of added repeats; letters on the right indicate template residue. Images are representative of three independent experiments.
The telomerase assay was as described. […] Reactions containing the modified dNTPs (Trilink Biotechnologies) substituted for their natural dNTP analog are indicated in the figure legends. The reactions were started by the addition of 3 μl (~35 fmol) of immunopurified telomerase eluent, incubated at 37 °C for 1 h, then terminated with 2 μl of […] EDTA and heat inactivated at 65 °C for 20 min. ^32P-end labeled 18-mer loading control (8 fmol) was added to the terminated reactions before purification with an Illustra Microspin G-25 column (GE Healthcare). An equal volume of loading buffer (94% formamide, 0.1× TBE, 0.1% bromophenol blue, 0.1% xylene cyanol) was added to the reaction eluent from the G-25 spin column. The samples were heat denatured for 10 min at 100 °C and loaded onto a 14% denaturing polyacrylamide gel (7 M urea, 1× TBE) and electrophoresed for 90 min at constant 38 W. Samples were imaged using a Typhoon phosphorimager (GE Healthcare).
The processivity was calculated as described[40],[67]. Repeat processivity from the direct telomerase extension assays was calculated as R1/2 (equivalent to the half-time for decay in an exponential time course), which represents the median length of DNA product formed, expressed in terms of number of telomere repeats. First, the total volume counts for each product band extend by one or more telomere repeats were obtained using Image Quant TL. The volume counts were then normalized by dividing by the number of radiolabeled guanosines incorporated into the extended products based on the number of repeats added, termed corrected volume (corr vol). The “percent left behind” (%LB) was calculated for each product band by summing the counts for that product band and for every product band below (shorter products), divided by the total counts for the lane, and then multiplied by 100. The natural log of (100−%LB) was calculated and then plotted vs. repeat number for each product length. A linear regression line was fit to the data to determine the slope of the line. The R1/2 value was calculated by dividing −ln(2) by the slope of each fitted line (R1/2 = −ln(2)/slope).
Number of Repeats Number of Repeats Number of Repeats Number of Repeats
Supplementary Fig 2.Telomerase dNTP titrations and processivity calculations. Telomerase reactions were conducted with (TTAGGG) 3 primer 1 and cellular-concentration dNTPs except that the […]
The loading control (LC) was a 32P-end labeled 18-mer. Numbers on the left indicate the number of added repeats. (d) Processivity was calculated as R1/2 (see Methods). (e) The natural log of (100-%LB) was plotted vs repeat number. A straight line was fit to the data and the R1/2 was calculated by dividing –ln(2) by the slope of each line. Plots shown from one experiment. Images ( a-c) and plots ( e) are representative of, and data are mean + s. d. (d) from, three independent experiments. Source data are provided as a Source Data file.
(1 picture or pasted object on this page, not shown here)

[1] = indicated dNTP at 0.5 μM, n1-n3
[2] = 5μM titrated dNTP, telomere repeat 1
[3] = 25μM titrated dNTP, telomere repeat 1

telomerase, sequence (O14746 whole entry): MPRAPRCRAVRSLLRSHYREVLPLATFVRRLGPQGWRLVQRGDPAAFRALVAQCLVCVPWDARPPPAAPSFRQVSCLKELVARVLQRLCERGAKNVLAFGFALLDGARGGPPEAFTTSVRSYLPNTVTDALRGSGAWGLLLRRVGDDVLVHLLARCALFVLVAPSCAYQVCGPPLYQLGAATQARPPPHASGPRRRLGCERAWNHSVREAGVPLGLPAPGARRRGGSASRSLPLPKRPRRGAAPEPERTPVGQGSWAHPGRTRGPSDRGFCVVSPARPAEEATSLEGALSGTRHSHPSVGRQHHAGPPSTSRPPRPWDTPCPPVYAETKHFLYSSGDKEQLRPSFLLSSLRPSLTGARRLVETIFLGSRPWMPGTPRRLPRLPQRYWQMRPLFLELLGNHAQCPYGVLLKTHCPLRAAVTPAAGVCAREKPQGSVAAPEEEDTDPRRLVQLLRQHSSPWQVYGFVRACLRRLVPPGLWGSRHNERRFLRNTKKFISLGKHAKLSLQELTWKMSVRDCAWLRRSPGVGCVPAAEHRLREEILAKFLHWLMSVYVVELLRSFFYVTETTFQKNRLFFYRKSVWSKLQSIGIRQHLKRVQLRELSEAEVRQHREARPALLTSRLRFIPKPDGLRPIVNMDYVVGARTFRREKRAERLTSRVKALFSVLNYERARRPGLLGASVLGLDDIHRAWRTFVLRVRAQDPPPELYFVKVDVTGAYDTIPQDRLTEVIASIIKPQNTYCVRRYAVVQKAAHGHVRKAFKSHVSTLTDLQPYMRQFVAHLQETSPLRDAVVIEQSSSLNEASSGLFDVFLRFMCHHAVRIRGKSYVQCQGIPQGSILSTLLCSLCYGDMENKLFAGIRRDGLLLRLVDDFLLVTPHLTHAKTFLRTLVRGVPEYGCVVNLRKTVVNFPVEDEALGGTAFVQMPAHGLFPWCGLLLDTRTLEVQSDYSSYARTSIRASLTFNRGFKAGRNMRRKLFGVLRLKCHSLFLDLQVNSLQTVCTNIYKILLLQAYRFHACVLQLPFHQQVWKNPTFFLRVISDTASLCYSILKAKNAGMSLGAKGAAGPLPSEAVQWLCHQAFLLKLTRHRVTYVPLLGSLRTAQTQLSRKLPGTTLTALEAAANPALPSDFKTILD

| SMILES | Processivity R 1/2 (indicated dNTP at 0.5 μM, Mean) | Processivity R 1/2 [1] | Processivity R 1/2 (indicated dNTP at 1 μM, Mean) | Processivity R 1/2 (indicated dNTP at 1 μM, n1-n3) | Processivity R 1/2 (indicated dNTP at 5 μM, Mean) | Processivity R 1/2 (indicated dNTP at 5 μM, n1-n3) | Processivity R 1/2 (indicated dNTP at 24 μM, Mean) | Processivity R 1/2 (indicated dNTP at 24 μM, n1-n3) | further results |
| --- | --- | --- | --- | --- | --- | --- | --- | --- | --- |
| Nc1nc(O)nc2c1ncn2C1CC(O)C(COP(=O)(O)OP(=O)(O)OP(=O)(O)O)O1 (stereo not shown) [2-OH-dATP] | 0.46 | 0.46 and 0.39 and 0.53 | 0.43 | 0.30 and 0.39 and 0.59 | 0.57 | 0.42 and 0.69 and 0.61 | 0.66 | 0.46 and 0.70 and 0.83 | YIntercept (best-fit line of ln(100-%LB) vs repeat number) (2-OH-dATP 0.5μM, single experiments): 2.12 and 4.01 and 2.03; YIntercept (best-fit line of ln(100-%LB) vs repeat number) (2-OH-dATP 1μM, single experiments): 2.17 and 3.36 and 2.82; ln(100-%LB) (2-OH-dATP 5μM, 1 telomere repeat, single experiments): 1.89 and 1.96 and 2.94; YIntercept (best-fit line of ln(100-%LB) vs repeat number) (2-OH-dATP 5μM, single experiments): 3.87 and 3.78 and 4.14; ln(100-%LB) (2-OH-dATP 25μM, 1 telomere repeat, single experiments): 2.24 and 2.45; ln(100-%LB) (2-OH-dATP 25μM, 2 telomere repeats, single experiments): 0.15 and 0.23; YIntercept (best-fit line of ln(100-%LB) vs repeat number) (2-OH-dATP 25μM, single experiments): 3.63 and 4.14 |
| Nc1nc2c(ncn2C2CC(O)C(COP(=O)(O)OP(=O)(O)OP(=O)(O)O)O2)c(=S)[nH]1 (stereo not shown) [6-thio-dGTP] | 0 | 0 | 0 | 0 | 0 | 0 | 0 | 0 |  |
| Nc1ncnc2c1[nH]c(=O)n2C1CC(O)C(COP(=O)(O)OP(=O)(O)OP(=O)(O)O)O1 (stereo not shown) [8-oxo-dATP] | 0 | 0 | 0 | 0 | 0 | 0 | 0 | 0 |  |
| Nc1nc2c([nH]c(=O)n2C2CC(O)C(COP(=O)(O)OP(=O)(O)OP(=O)(O)O)O2)c(=O)[nH]1 (stereo not shown) [8-oxo-dGTP] | 0 | 0 | 0 | 0 | 0 | 0 | 0 | 0 |  |
| Cc1cn([C@H]2C[C@H](N=[N+]=[N-])[C@@H](CO[P@](=O)(O)O[P@](=O)(O)OP(=O)(O)O)O2)c(=O)[nH]c1=O [AZT-TP] | 0 | 0 | 0 | 0 | 0 | 0 | 0 | 0 |  |
| Nc1ncnc2c1ncn2C1CC(O)C(COP(=O)(O)OP(=O)(O)OP(=O)(O)O)O1 (stereo not shown) [dATP] | 1.28 | 0.99 and 1.34 and 1.51 | 1.47 | 1.33 and 1.42 and 1.67 | 2.10 | 1.66 and 2.20 and 2.43 | 2.21 | 1.90 and 2.36 and 2.37 | YIntercept (line, best-fit value) of ln(100-%LB) vs # telomere repeats (0.5μM titrated dNTP): 4.31 and 3.25 and 4.01; YIntercept (line, best-fit value) of ln(100-%LB) vs # telomere repeats (1μM titrated dNTP): 4.44 and 2.47 and 4.49; ln(100-%LB) (1μM titrated dNTP, telomere repeat 3): 2.47 and 1.35 and 2.09; YIntercept (line, best-fit value) of ln(100-%LB) vs # telomere repeats (5μM titrated dNTP): 4.00 and 3.98 and 2.64; ln(100-%LB) [2]: 3.97 and 2.20; ln(100-%LB) (5μM titrated dNTP, telomere repeat 2): 3.54 and 1.95; ln(100-%LB) (5μM titrated dNTP, telomere repeat 3): 3.04 and 3.01 and 1.68; YIntercept (line, best-fit value) of ln(100-%LB) vs # telomere repeats (25μM titrated dNTP): 3.73 and 2.10; ln(100-%LB) [3]: 3.90 and 2.05 |
| Nc1nc2c(ncn2C2CC(O)C(COP(=O)(O)OP(=O)(O)OP(=O)(O)O)O2)c(=O)[nH]1 (stereo not shown) [dGTP] | 1.69 | 1.96 and 1.27 and 1.84 | 1.78 | 1.97 and 1.53 and 1.85 | 2.39 |  | 5.11 |  | ln(100-%LB) (0.5μM titrated dNTP, telomere repeat 8): -4.24; ln(100-%LB) (0.5μM titrated dNTP, telomere repeat 9): -4.48; ln(100-%LB) (0.5μM titrated dNTP, telomere repeat 10): -4.75; ln(100-%LB) (0.5μM titrated dNTP, telomere repeat 11): -4.99 |
| Cc1cn(C2CC(O)C(COP(=O)(O)OP(=O)(O)OP(=O)(O)O)O2)c(=O)[nH]c1=O (stereo not shown) [dTTP] | 1.28 | 1.27 and 1.42 and 1.15 | 1.90 | 1.45 and 1.97 and 2.27 | 2.06 | 1.59 and 1.96 and 2.62 | 1.95 |  | YIntercept (line, best-fit value) of ln(100-%LB) vs # telomere repeats (0.5μM titrated dNTP): 4.06 and 3.53 and 2.25; YIntercept (line, best-fit value) of ln(100-%LB) vs # telomere repeats (1μM titrated dNTP): 3.61 and 3.41 and 1.82; ln(100-%LB) (1μM titrated dNTP, telomere repeat 1): 3.41 and 3.35 and 1.72; ln(100-%LB) [2]: 1.67 and 3.31 and 3.28; YIntercept (line, best-fit value) of ln(100-%LB) vs # telomere repeats (25μM titrated dNTP): 3.33 and 3.39 and 1.96; ln(100-%LB) [3]: 3.18 and 3.21 and 2.13; ln(100-%LB) (25μM titrated dNTP, telomere repeat 2): 2.32 and 2.36 and 1.43; ln(100-%LB) (25μM titrated dNTP, telomere repeat 3): 1.64 and 1.63 and 0.90 |
| O=c1[nH]cnc2c1ncn2C1CCC(COP(=O)(O)OP(=O)(O)OP(=O)(O)O)O1 (stereo not shown) [ddITP] | 0 | 0 | 0 | 0 | 0 | 0 | 0 | 0 |  |
